Reference: publication PMC8227227 (Viruses, 2021)
Read-outs that look alike come from different tables or passages of the source.

Legend:
[1] = molecular target: T1, HIV-1 PR (Human immunodeficiency virus type 1 group M subtype B, UniProt P04585); details: values published previously, cited from earlier work
T1 construct: assayed as substrates of the HIV-1 protease (PR)

[2] = molecular target: T1, HIV-1 PR; assay: Enzyme assay with synthetic oligopeptide substrates (RP-HPLC); format: biochemical, human immunodeficiency virus type 1 (HIV-1); details: for Km / kcat: Table 3, revertant peptides, 37 °C, 1 h; for Km: 0.25 M potassium phosphate pH 5.6, 7.5% glycerol, 1 mM EDTA, 5 mM DTT, 2 M NaCl, RP-HPLC, Michaelis-Menten fit; for kcat: same buffer, peptides not cleaved at threshold given as estimated kcat < 0.01 s^−1; for kcat/Km: Table 3, specificity constant calculated from the Km and kcat values; for cleavability by HIV-1 PR: threshold estimated kcat < 0.01 s^−1

## KIVKCFFCGK [peptide 2, P1′ substituted NC-1 decapeptide […]]
[1]; Table 2
  Km: 20 µM
  kcat: 0.900 ^1 s^−1
  kcat/Km: 59.6 ^1 mM^−1 s^−1

## KIVKCFGCGK [peptide 14, P1′ substituted NC-1 decapeptide […]]
[1]; Table 2
  Km: 1340 µM
  kcat: 0.002 ^1 s^−1
  kcat/Km: 0.001 ^1 mM^−1 s^−1
[1]; Table 3, repeated from Table 2
  Km: 1340 µM
  kcat: 0.002 s⁻¹
  kcat/Km: 0.001 mM⁻¹ s⁻¹

## KIVKCFNCGK [peptide 1]
[1]; Table 2
  Km: 430 µM
  kcat: 0.017 ^1 s^−1
  kcat/Km: 0.040 ^1 mM^−1 s^−1
[1]; Table 3, repeated from Table 2
  Km: 430 µM
  kcat: 0.017 s⁻¹
  kcat/Km: 0.040 mM⁻¹ s⁻¹

## KIVKICFGCGKR [peptide 17, revertant NC-1 cleavage site peptide […]]
[2]
  Km: 70 µM
  kcat: 0.025 s⁻¹
  kcat/Km: 0.35 mM⁻¹ s⁻¹

## KIVTCFGCGK [peptide 15, revertant NC-1 cleavage site peptide […]]
[2]
  kcat: <0.010 s⁻¹
  cleavability by HIV-1 PR: did not yield a cleavable peptide

## RKIVICFGCGKR [peptide 16, revertant NC-1 cleavage site peptide […]]
[2]
  Km: 35 µM
  kcat: 0.034 s⁻¹
  kcat/Km: 0.97 ^5 mM^−1 s^−1

## RKIVICFGCIKR [peptide 19, revertant NC-1 cleavage site peptide […]]
[2]
  Km: < 10 µM
  kcat: 0.015 s⁻¹

## RKIVKCFGCIKR [peptide 18, revertant NC-1 cleavage site peptide […]]
[2]
  kcat: <0.010 s⁻¹
  cleavability by HIV-1 PR: did not provide a cleavable peptide
